Reference: US20230330034A1, “COVALENTLY CROSS-LINKED GLYCOSYLATED MUCIN NANOPARTICLES AS SYSTEMS FOR THE DELIVERY AND RELEASE OF ACTIVE INGREDIENTS AND BIOMOLECULES” (priority 2020, published 2023)

Experiments:
[1] = test system: H358 lung cancer cell line; assay: Antiproliferative activity, % of cell viability; type: cell-based; details: Homo sapiens, NCI-H358, read-out: 1050
[2] = PAMPA, 5 h, 200 µM

COc1cccc2c1C(=O)c1c(O)c3c(c(O)c1C2=O)C[C@@](O)(C(=O)CO)C[C@@H]3O[C@H]1C[C@H](N)[C@H](O)[C@H](C)O1 [doxorubicin]
IC50 [1]: 0.3 nM

CC(C)NCC(O)COc1cccc2ccccc12 (centres unmarked) [propranolol]
Ca (t) [2]: 2.01 µM
Cd(t) [2]: 6.6 µM
Ceq [2]: 3.85 µM

CC(=O)Nc1cccc(-n2c(=O)n(C3CC3)c(=O)c3c(Nc4ccc(I)cc4F)n(C)c(=O)c(C)c32)c1 [trametinib]
IC50 [1]: 7 nM
